How the values were obtained:
Type in all cases: in vivo
[1] = system: barnyardgrass (Echinochloa crus-galli); test: Test G Pre-Emergence Protocol; settings: Echinochloa crus-galli, pre-emergence, 312 h, evaluated after 13 days; for pest or weed control at 15.625 g/ha: 15.625 g ai/ha, read-out: Barnyard grass damage rating (100=total damage to plant; 0=no damage to plant); for pest or weed control at 62.5 g/ha: 62.5 g ai/ha, 100=total damage to plant, 0=no damage to plant, read-out: plant damage rating, Barnyardgrass; for pest or weed control at 250 g/ha: 250 g ai/ha, read-out: Barnyardgrass damage rating (100=total damage to plant; 0=no damage to plant)
Procedure, shortened: (§1)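 Visual injury (0–100) at day 13 after a single pre-emergence spray. Rates: 15.625, 62.5, 250 g/ha in acetone–water 50:50 with 0.5% Tween 20. Growth conditions: 24/16° C, 14 h light, 65% humidity.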

corn (Zea mays) [2] = test: Test G Pre-Emergence Protocol; settings: Zea mays, pre-emergence, 312 h, evaluated after 13 days; for plant injury at 15.625 g/ha: 15.625 g ai/ha; for plant injury at 15.625 g/ha / plant injury at 250 g/ha: read-out: Corn damage rating (100=total damage to plant; 0=no damage to plant); for plant injury at 62.5 g/ha: 62.5 g ai/ha, 100=total damage to plant, 0=no damage to plant, read-out: plant damage rating, Corn; for plant injury at 250 g/ha: 250 g ai/ha
Procedure, shortened: as §1

[3] = system: giant foxtail (Setaria faberi); test: Test G Pre-Emergence Protocol; settings: Setaria faberi, pre-emergence, 312 h, evaluated after 13 days; for pest or weed control at 15.625 g/ha: 15.625 g ai/ha; for pest or weed control at 15.625 g/ha / pest or weed control at 250 g/ha: read-out: Foxtail, Giant damage rating (100=total damage to plant; 0=no damage to plant); for pest or weed control at 62.5 g/ha: 62.5 g ai/ha, 100=total damage to plant, 0=no damage to plant, read-out: plant damage rating, Foxtail, Giant; for pest or weed control at 250 g/ha: 250 g ai/ha
Procedure, shortened: as §1

[4] = system: ivy-leaved morning glory (Ipomoea hederacea); test: Test G Pre-Emergence Protocol; settings: Ipomoea, pre-emergence, 312 h, evaluated after 13 days; for pest or weed control at 15.625 g/ha: 15.625 g ai/ha, read-out: Morning-glory, Ivy-leaved damage rating (100=total damage to plant; 0=no damage to plant); for pest or weed control at 62.5 g/ha: 62.5 g ai/ha, 100=total damage to plant, 0=no damage to plant, read-out: plant damage rating, Morningglory, Ivy-leaved; for pest or weed control at 250 g/ha: 250 g ai/ha, read-out: Morningglory, Ivy-leaved damage rating (100=total damage to plant; 0=no damage to plant)
Procedure, shortened: as §1

[5] = system: redroot pigweed (Amaranthus retroflexus); test: Test G Pre-Emergence Protocol; settings: Amaranthus retroflexus, pre-emergence, 312 h, evaluated after 13 days; for pest or weed control at 15.625 g/ha: 15.625 g ai/ha; for pest or weed control at 15.625 g/ha / pest or weed control at 250 g/ha: read-out: Pigweed, Redroot damage rating (100=total damage to plant; 0=no damage to plant); for pest or weed control at 62.5 g/ha: 62.5 g ai/ha, 100=total damage to plant, 0=no damage to plant, read-out: plant damage rating, Pigweed, Redroot; for pest or weed control at 250 g/ha: 250 g ai/ha
Procedure, shortened: as §1

[6] = system: velvetleaf (Abutilon theophrasti); test: Test G Pre-Emergence Protocol; settings: Abutilon theophrasti, pre-emergence, 312 h, evaluated after 13 days; for pest or weed control at 15.625 g/ha: 15.625 g ai/ha; for pest or weed control at 15.625 g/ha / pest or weed control at 250 g/ha: read-out: Velvetleaf damage rating (100=total damage to plant; 0=no damage to plant); for pest or weed control at 62.5 g/ha: 62.5 g ai/ha, 100=total damage to plant, 0=no damage to plant, read-out: plant damage rating, Velvetleaf; for pest or weed control at 250 g/ha: 250 g ai/ha
Procedure, shortened: as §1

[7] = system: barnyardgrass (Echinochloa crus-galli); test: Test G Post-Emergence Protocol; settings: Echinochloa crus-galli, post-emergence, 312 h; for pest or weed control at 15.625 g/ha: 15.625 g ai/ha, evaluated after 13 days (100=total damage to plant; 0=no damage to plant), read-out: Barnyardgrass damage rating; for pest or weed control at 62.5 g/ha: 62.5 g ai/ha, read-out: Barnyardgrass damage rating (100=total damage to plant; 0=no damage to plant); for pest or weed control at 62.5 g/ha / pest or weed control at 250 g/ha: evaluated after 13 days; for pest or weed control at 250 g/ha: 250 g ai/ha, read-out: damage to plant, Barnyardgrass (100=total damage to plant; 0=no damage to plant)
Procedure, shortened: (§2)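 A glasshouse post-emergence test: 8-day-old plants sprayed at 15.625, 62.5 or 250 g/ha, then grown at 24/16 °C day/night with 14 h light and 65% humidity. Damage rated 13 days later, 0–100.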

corn (Zea mays) [8] = test: Test G Post-Emergence Protocol; settings: Zea mays, post-emergence, 312 h; for plant injury at 15.625 g/ha: 15.625 g ai/ha, evaluated after 13 days (100=total damage to plant; 0=no damage to plant), read-out: Corn damage rating; for plant injury at 62.5 g/ha: 62.5 g ai/ha, read-out: Corn damage rating (100=total damage to plant; 0=no damage to plant); for plant injury at 62.5 g/ha / plant injury at 250 g/ha: evaluated after 13 days; for plant injury at 250 g/ha: 250 g ai/ha, read-out: damage to plant, Corn (100=total damage to plant; 0=no damage to plant)
Procedure, shortened: as §2

[9] = system: giant foxtail (Setaria faberi); test: Test G Post-Emergence Protocol; settings: Setaria faberi, post-emergence, 312 h; for pest or weed control at 15.625 g/ha: 15.625 g ai/ha, evaluated after 13 days (100=total damage to plant; 0=no damage to plant), read-out: Foxtail, Giant damage rating; for pest or weed control at 62.5 g/ha: 62.5 g ai/ha, read-out: Foxtail, Giant damage rating (100=total damage to plant; 0=no damage to plant); for pest or weed control at 62.5 g/ha / pest or weed control at 250 g/ha: evaluated after 13 days; for pest or weed control at 250 g/ha: 250 g ai/ha, read-out: damage to plant, Foxtail, Giant (100=total damage to plant; 0=no damage to plant)
Procedure, shortened: as §2

[10] = system: ivy-leaved morning glory (Ipomoea hederacea); test: Test G Post-Emergence Protocol; settings: Ipomoea, post-emergence, 312 h; for pest or weed control at 15.625 g/ha: 15.625 g ai/ha, evaluated after 13 days (100=total damage to plant; 0=no damage to plant), read-out: Morningglory, Ivy-leaved damage rating; for pest or weed control at 62.5 g/ha: 62.5 g ai/ha, read-out: Morningglory, Ivy-leaved damage rating (100=total damage to plant; 0=no damage to plant); for pest or weed control at 62.5 g/ha / pest or weed control at 250 g/ha: evaluated after 13 days; for pest or weed control at 250 g/ha: 250 g ai/ha, read-out: damage to plant, Morningglory, Ivy-leaved (100=total damage to plant; 0=no damage to plant)
Procedure, shortened: as §2

[11] = system: redroot pigweed (Amaranthus retroflexus); test: Test G Post-Emergence Protocol; settings: Amaranthus retroflexus, post-emergence, 312 h; for pest or weed control at 15.625 g/ha: 15.625 g ai/ha, evaluated after 13 days (100=total damage to plant; 0=no damage to plant), read-out: Pigweed, Redroot damage rating; for pest or weed control at 62.5 g/ha: 62.5 g ai/ha, read-out: Pigweed, Redroot damage rating (100=total damage to plant; 0=no damage to plant); for pest or weed control at 62.5 g/ha / pest or weed control at 250 g/ha: evaluated after 13 days; for pest or weed control at 250 g/ha: 250 g ai/ha, read-out: damage to plant, Pigweed, Redroot (100=total damage to plant; 0=no damage to plant)
Procedure, shortened: as §2

[12] = system: velvetleaf (Abutilon theophrasti); test: Test G Post-Emergence Protocol; settings: Abutilon theophrasti, post-emergence, 312 h; for pest or weed control at 15.625 g/ha: 15.625 g ai/ha, evaluated after 13 days (100=total damage to plant; 0=no damage to plant), read-out: Velvetleaf damage rating; for pest or weed control at 62.5 g/ha: 62.5 g ai/ha, read-out: Velvetleaf damage rating (100=total damage to plant; 0=no damage to plant); for pest or weed control at 62.5 g/ha / pest or weed control at 250 g/ha: evaluated after 13 days; for pest or weed control at 250 g/ha: 250 g ai/ha, read-out: damage to plant, Velvetleaf (100=total damage to plant; 0=no damage to plant)
Procedure, shortened: as §2

SMILES | pest or weed control at 15.625 g/ha [1] | pest or weed control at 62.5 g/ha [1] | pest or weed control at 250 g/ha [1] | plant injury at 15.625 g/ha (corn (Zea mays) [2]) | plant injury at 62.5 g/ha (corn (Zea mays) [2]) | plant injury at 250 g/ha (corn (Zea mays) [2]) | pest or weed control at 15.625 g/ha [3] | pest or weed control at 62.5 g/ha [3] | pest or weed control at 250 g/ha [3] | pest or weed control at 15.625 g/ha [4] | pest or weed control at 62.5 g/ha [4] | pest or weed control at 250 g/ha [4] | pest or weed control at 15.625 g/ha [5] | pest or weed control at 62.5 g/ha [5] | pest or weed control at 250 g/ha [5] | pest or weed control at 15.625 g/ha [6] | pest or weed control at 62.5 g/ha [6] | pest or weed control at 250 g/ha [6] | pest or weed control at 15.625 g/ha [7] | pest or weed control at 62.5 g/ha [7] | also measured
Cc1cc([C@@H]2CN(C)C(=O)[C@H]2C(=O)Nc2cccc(F)c2F)cc(Cl)n1 (racemic) [Compound 1481] | 20% | 40% | 80% | 30% | 30% | 60% | 40% | 60% | 90% | 0% | 0% | 10% | 0% | 0% | 20% | 0% | 0% | 10% | 30% | 60% | pest or weed control at 250 g/ha [7]: 70%; plant injury at 15.625 g/ha (corn (Zea mays) [8]): 20%; plant injury at 62.5 g/ha (corn (Zea mays) [8]): 20%; plant injury at 250 g/ha (corn (Zea mays) [8]): 60%; pest or weed control at 15.625 g/ha [9]: 40%; pest or weed control at 62.5 g/ha [9]: 60%; pest or weed control at 250 g/ha [9]: 70%; pest or weed control at 15.625 g/ha [10]: 0%; pest or weed control at 62.5 g/ha [10]: 10%; pest or weed control at 250 g/ha [10]: 80%; pest or weed control at 15.625 g/ha [11]: 0%; pest or weed control at 62.5 g/ha [11]: 0%; pest or weed control at 250 g/ha [11]: 20%; pest or weed control at 15.625 g/ha [12]: 0%; pest or weed control at 62.5 g/ha [12]: 0%; pest or weed control at 250 g/ha [12]: 10%
CN1C[C@@H](c2ccc(C(F)(F)F)cc2)[C@H](C(=O)Nc2cccc(Cl)c2C#N)C1=O (racemic) [Compound 1645] | 0% | 40% | 50% | 0% | 0% | 0% | 0% | 30% | 60% | 0% | 0% | 0% | 0% | 10% | 10% | 0% | 0% | 10% | 0% | 20% | pest or weed control at 250 g/ha [7]: 70%; plant injury at 15.625 g/ha (corn (Zea mays) [8]): 0%; plant injury at 62.5 g/ha (corn (Zea mays) [8]): 0%; plant injury at 250 g/ha (corn (Zea mays) [8]): 0%; pest or weed control at 15.625 g/ha [9]: 0%; pest or weed control at 62.5 g/ha [9]: 70%; pest or weed control at 250 g/ha [9]: 80%; pest or weed control at 15.625 g/ha [10]: 0%; pest or weed control at 62.5 g/ha [10]: 0%; pest or weed control at 250 g/ha [10]: 0%; pest or weed control at 15.625 g/ha [11]: 0%; pest or weed control at 62.5 g/ha [11]: 40%; pest or weed control at 250 g/ha [11]: 40%; pest or weed control at 15.625 g/ha [12]: 0%; pest or weed control at 62.5 g/ha [12]: 0%; pest or weed control at 250 g/ha [12]: 0%
